Experimental data published in patent US9255101B2 (BIOPROJECT, priority 2012, dated 2016).

Assays:
[1] = target: human H4 receptor (Homo sapiens, UniProt Q9H3N8); test: biochemical;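 also: radioligand displacement of a [3H]-labelled ligand from membranes of CHO cells stably expressing human H4 receptor, bound radioactivity counted on filters by liquid scintillation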
Chain of human H4 receptor (Q9H3N8 whole entry): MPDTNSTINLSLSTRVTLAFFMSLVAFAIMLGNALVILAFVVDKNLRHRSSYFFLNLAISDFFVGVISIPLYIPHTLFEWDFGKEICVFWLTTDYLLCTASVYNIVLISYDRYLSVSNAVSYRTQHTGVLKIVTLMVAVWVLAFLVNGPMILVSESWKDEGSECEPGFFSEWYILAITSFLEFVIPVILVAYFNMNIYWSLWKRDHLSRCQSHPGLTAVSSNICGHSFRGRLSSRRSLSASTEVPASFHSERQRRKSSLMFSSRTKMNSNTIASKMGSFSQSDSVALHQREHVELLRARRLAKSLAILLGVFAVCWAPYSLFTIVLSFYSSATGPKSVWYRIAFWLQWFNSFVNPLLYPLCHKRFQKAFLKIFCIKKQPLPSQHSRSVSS

CN1CCC(OC2c3ccccc3CCn3cc(I)nc32)CC1 (stereo not drawn) [Example 2, 2-iodo-4-(1-methylpiperidin-4-yloxy)-9,10-dihydro-4H-3,10a-diaza-benzo[f]azulene]
melting point: 126 °C
Ki [1]: < 300 nM

CN1CCC(OC2c3cccc(OCc4ccccc4)c3CCn3cc(-c4ccccc4)nc32)CC1 (stereo not drawn) [Example 248, 8-benzyloxy-4-(1-methylpiperidin-4-yloxy)-2-phenyl-9,10-dihydro-4H-3,10a-diaza-benzo[f]azulene]
melting point: 68 °C
Ki [1]: < 1000 nM

Cc1ccccc1-c1cccc2c1CCn1cc(-c3ccccc3)nc1C2OC1CCN(C)CC1 (stereo not drawn) [Example 239, 4-(1-methylpiperidin-4-yloxy)-2-phenyl-8-o-tolyl-9,10-dihydro-4H-3,10a-diaza-benzo[f]azulene]
melting point: 94 °C
Ki [1]: < 1000 nM

Cc1c(-c2ccsc2)nc2n1CCc1ccccc1C2OC1CCN(C)CC1 (stereo not drawn) [Example 148, 1-methyl-4-(1-methylpiperidin-4-yloxy)-2-thiophen-3-yl-9,10-dihydro-4H-3,10a-diaza-benzo[f]azulene]
melting point: 74 °C
Ki [1]: < 30 nM

CN1CCC(OC2c3cccc(Cc4ccccc4)c3CCn3cc(-c4ccccc4)nc32)CC1 (stereo not drawn) [Example 233, 8-benzyl-4-(1-methylpiperidin-4-yloxy)-2-phenyl-9,10-dihydro-4H-3,10a-diaza-benzo[f]azulene]
melting point: 66 °C
Ki [1]: < 1000 nM

Cc1cccc2c1CCn1cc(-c3ccccc3)nc1C2OC1CCN(C)CC1 (stereo not drawn) [Example 236, 8-methyl-4-(1-methylpiperidin-4-yloxy)-2-phenyl-9,10-dihydro-4H-3,10a-diaza-benzo[f]azulene]
melting point: 71 °C
Ki [1]: < 300 nM

CN1CCC(OC2c3ccc(Br)cc3CCn3cc(-c4ccccc4)nc32)CC1 (stereo not drawn) [Example 261, 7-bromo-4-(1-methylpiperidin-4-yloxy)-2-phenyl-9,10-dihydro-4H-3,10a-diaza-benzo[f]azulene]
melting point: 92 °C
Ki [1]: < 300 nM

CN1CCC(OC2c3ccccc3CCn3c2nc(I)c3C#N)CC1 (stereo not drawn) [Example 221, 2-iodo-4-(1-methylpiperidin-4-yloxy)-9,10-dihydro-4H-3,10a-diaza-benzo[f]azulene-1-carbonitrile]
melting point: 195 °C
Ki [1]: < 1000 nM

CN1CCC(OC2c3ccccc3CC(C)(C)n3cc(-c4ccccc4)nc32)CC1 (stereo not drawn) [Example 230, 10,10-dimethyl-4-(1-methylpiperidin-4-yloxy)-2-phenyl-9,10-dihydro-4H-3,10a-diaza-benzo[f]azulene]
melting point: 85 °C
Ki [1]: < 1000 nM

Cc1c(C(O)c2ccccc2)nc2n1CCc1ccccc1C2OC1CCN(C)CC1.O=CO (stereo not drawn) [Example 201, [1-methyl-4-(1-methylpiperidin-4-yloxy)-9,10-dihydro-4H-3,10a-diaza-benzo[f]azulen-2-yl]phenylmethanol, formic acid salt]
melting point: 85 °C
Ki [1]: < 1000 nM

CSc1cccc2c1CCn1cc(-c3ccccc3)nc1C2OC1CCN(C)CC1 (stereo not drawn) [Example 234, 4-(1-methylpiperidin-4-yloxy)-8-methylsulfanyl-2-phenyl-9,10-dihydro-4H-3,10a-diaza-benzo[f]azulene]
melting point: 134 °C
Ki [1]: < 1000 nM

Cc1c(-c2ccc(C3=CCN(C(=O)OC(C)(C)C)CC3)cc2)nc2n1CCc1ccccc1C2OC1CCN(C)CC1 (stereo not drawn) [Example 168, 4-{4-[1-methyl-4-(1-methyl-piperidin-4-yloxy)-9,10-dihydro-4H-3,10a-diaza-benzo[f]azulen-2-yl]-phenyl}-3,6-dihydro-2H-pyridine-1-carboxylic acid tert-butyl ester]
melting point: 171 °C
Ki [1]: < 30 nM

CN1CCC(OC2c3ccccc3CCn3c2nc(-c2ccccc2)c3I)CC1 (stereo not drawn) [Example 247, 1-iodo-4-(1-methylpiperidin-4-yloxy)-2-phenyl-9,10-dihydro-4H-3,10a-diaza-benzo[f]azulene]
melting point: 153 °C
Ki [1]: < 30 nM

Cc1c(C(=O)c2ccccc2)nc2n1CCc1ccccc1C2OC1CCN(C)CC1.O=CO (stereo not drawn) [Example 202, [1-methyl-4-(1-methylpiperidin-4-yloxy)-9,10-dihydro-4H-3,10a-diaza-benzo[f]azulen-2-yl]phenylmethanone, formic acid salt]
melting point: 71 °C
Ki [1]: < 1000 nM

COc1cccc2c1CCn1cc(-c3ccccc3)nc1C2OC1CCN(C)CC1 (stereo not drawn) [Example 245, 8-methoxy-4-(1-methylpiperidin-4-yloxy)-2-phenyl-9,10-dihydro-4H-3,10a-diaza-benzo[f]azulene]
melting point: 73 °C
Ki [1]: < 1000 nM

CN1CCC(OC2c3ccccc3CCn3c2nc(-c2ccc(C(=O)OC(C)(C)C)cc2)c3C#N)CC1 (stereo not drawn) [Example 224, 4-[1-cyano-4-(1-methylpiperidin-4-yloxy)-9,10-dihydro-4H-3,10a-diaza-benzo[f]azulen-2-yl]-benzoic acid tert-butyl ester]
melting point: 95 °C
Ki [1]: < 30 nM

Cc1ccc(-c2nc3n(c2C)CCc2ccccc2C3OC2CCN(C)CC2)c(Cl)c1 (stereo not drawn) [Example 157, 2-(2-chloro-4-methylphenyl)-1-methyl-4-(1-methylpiperidin-4-yloxy)-9,10-dihydro-4H-3,10a-diaza-benzo[f]azulene]
melting point: 133 °C
Ki [1]: < 30 nM

Cc1c(-c2ccc(F)cc2)nc2n1CCc1ccccc1C2OC1CCN(C)CC1 (stereo not drawn) [Example 154, 2-(4-fluorophenyl)-1-methyl-4-(1-methylpiperidin-4-yloxy)-9,10-dihydro-4H-3,10a-diaza-benzo[f]azulene]
melting point: 168 °C
Ki [1]: < 30 nM

CN1CCC(OC2c3cccc(CCc4ccccc4)c3CCn3cc(-c4ccccc4)nc32)CC1 (stereo not drawn) [Example 249, 4-(1-methyl-piperidin-4-yloxy)-8-phenethyl-2-phenyl-9,10-dihydro-4H-3,10a-diaza-benzo[f]azulene]
melting point: 67 °C
Ki [1]: < 1000 nM

CN1CC(COC2c3ccccc3CCn3cc(I)nc32)C1 (stereo not drawn) [Example 7, 2-Iodo-4-(1-methylazetidin-3-ylmethoxy)-9,10-dihydro-4H-3,10a-diaza-benzo[f]azulene]
melting point: 100 °C
Ki [1]: < 1000 nM

CNc1cccc2c1CCn1cc(-c3ccccc3)nc1C2OC1CCN(C)CC1 (stereo not drawn) [Example 244, methyl-[4-(1-methylpiperidin-4-yloxy)-2-phenyl-9,10-dihydro-4H-3,10a-diaza-benzo[f]azulen-8-yl]-amine]
melting point: 189 °C
Ki [1]: < 1000 nM

CCCNC(=O)c1nc2n(c1C)CCc1ccccc1C2OC1CCN(C)CC1 (stereo not drawn) [Example 205, 1-methyl-4-(1-methylpiperidin-4-yloxy)-9,10-dihydro-4H-3,10a-diaza-benzo[f]azulene-2-carboxylic acid propylamide]
melting point: 60 °C
Ki [1]: < 1000 nM

CC(C)c1c(-c2ccccc2)nc2n1CCc1ccccc1C2OC1CCN(C)CC1.O=C(O)C(=O)O.O=C(O)C(=O)O (stereo not drawn) [Example 243, 1-isopropyl-4-(1-methylpiperidin-4-yloxy)-2-phenyl-9,10-dihydro-4H-3,10a-diaza-benzo[f]azulene dioxalate]
melting point: 90 °C
Ki [1]: < 300 nM

CN1CCC(OC2c3ccccc3CCn3c2nc(I)c3C(N)=O)CC1 (stereo not drawn) [Example 253, 2-iodo-4-(1-methylpiperidin-4-yloxy)-9,10-dihydro-4H-3,10a-diaza-benzo[f]azulene-1-carboxylic acid amide]
melting point: 85 °C
Ki [1]: < 1000 nM
